In patent publication US20250170108A1, “CHEMOTHERAPY FOR CANCER USING AZABICYCLO COMPOUND” (TAIHO PHARMACEUTICAL CO., LTD., priority 2017, published 2025):

How the values were obtained:
[1] = tested on: mouse bowel cancer cell line MC38; assay: Antitumor effect of Compound 1 and anti-mouse PD-L1 or anti-mouse CTLA-4 antibody in bowel cancer cell transplanted model (Example 3); assay type: in vivo
Experimental: (§1) Mouse bowel cancer cell line MC38 was obtained from Dr. Yoshihiro Hayakawa (University of Toyama, Toyama, Japan), and cultured in a RPMI1640 (Sigma-Aldrich) medium (culture solution) containing 10% fetal bovine serum (FBS). MC38 was subcultured at a ratio of 1:3 to 1:5 once or twice a week in an incubator with 5% CO2 at 37° C.
(§2) A cell suspension with a concentration of 2×10^6 cells/0.1 mL was transplanted subcutaneously in the vicinity of the right backmost rib bone of a 6-week-old C57BL/6JJcI mouse (CLEA Japan, Inc.).
(§3) The tumor was grown until reaching a tumor volume (TV) of 50 to 300 mm^3 after the transplantation. Degimatic Caliper was used for tumor diameter measurement. The major diameter and the minor diameter of the tumor were measured, and TV was calculated from the following equation.
(§4) By a stratified random allocation method using TV as an index, 6 animals were allocated to each group. The day when grouping (n=6) was performed was defined as Day 0.
(§5) The relative tumor volume (RTV) and the relative tumor volume change ratio (T/C) were calculated from TV.
(§6) An appropriate amount of water for injection described in the Japanese Pharmacopeia was added for adjusting hypromellose concentration to 0.5 w/v %, and the mixture was then stirred with a stirrer to completely dissolve hypromellose, to prepare a 0.5% aqueous hypromellose solution. Compound 1 was ground with an agate mortar, and then suspended to a predetermined concentration with the 0.5% aqueous hypromellose solution, and ultrasonic treatment was performed to obtain a homogeneous suspension. The suspension containing Compound 1 was orally administered once a day over 5 consecutive days at a dose of 10 mg/kg/day or 14 mg/kg/day, followed by cessation of administration for 2 days, and these processes were repeated three times.
The same procedure as described in Example 1 was carried out except that the anti-mouse PD-L1 antibody or the anti-CTLA-4 antibody was used instead of the anti-mouse PD-1 antibody. […]

[2] = Body weight change ratio in MC38 transplanted model (Example 3); assay type: in vivo, mouse; conditions: Compound 1 14 mg/kg/day p.o. days 1-5, 8-12, 15-19
Experimental: (§7) An electronic balance for animals was used for body weight measurement. The body weight change ratio on the nth day (BWCn) was calculated from the body weight on the nth day (BWn) in accordance with the following equation.
The same procedure as described in Example 1 was carried out except that the anti-mouse PD-L1 antibody or the anti-CTLA-4 antibody was used instead of the anti-mouse PD-1 antibody.
The anti-mouse PD-L1 antibody (anti-mPD-L1 Ab) was prepared by diluting InVivoMab anti-mouse PD-L1 (B7-H1) (Clone: 10F.9G2, Bio X cell Co.) to a predetermined concentration with Otsuka Normal Saline immediately before administration. On the first day of administration (day 1), the diluted product was intraperitoneally administered using the anti-mouse PD-L1 antibody at a dose of 0.05 mg/body. The anti-mouse CTLA-4 antibody (anti-mCTLA-4 Ab) was prepared by diluting InVivoMab anti-mouse CTLA-4 (CD152) (Clone: 9H10, Bio X cell Co.) to a predetermined concentration with Otsuka Normal Saline immediately before administration. On the first day of administration (day 1), the diluted product was intraperitoneally administered using the anti-mouse CTLA-4 antibody at a dose of 0.05 mg/body.

[3] = tested on: tumor infiltrating leucocytes (CD8 positive cells, regulatory T-cells); assay: Immunostimulatory action: flow cytometric analysis of tumor infiltrating lymphocytes in MC38 transplanted model (Example 2); assay type: in vivo, mouse
Experimental: Mouse bowel cancer cell line MC38 was cultured using a RPMI1640 (Waco Pure Chemical Industries, Ltd.) medium containing 10% FBS. MC38 was subcultured at a ratio of 1:5 to 1:10 once or twice a week in an incubator with 5% CO2 at 37° C.
A cell suspension with a concentration of 2×10^6 cells/0.1 mL was transplanted subcutaneously in the vicinity of the right backmost rib bone of a 6-week-old C57BL/6NJCrI mouse (Charles River Laboratories Japan Inc.).
The tumor was grown until reaching a tumor volume (TV) of 110 to 360 mm^3 after the transplantation. Degimatic Caliper was used for tumor diameter measurement. The major diameter and the minor diameter of the tumor were measured, and TV was calculated from the following equation.
By a stratified random allocation method using TV as an index, 5 animals were allocated to each group. The day when grouping (n=5) was performed was defined as Day 1.
Agents prepared by the same method as described in Example 1 were used for administration. Anti-mouse PD-1 antibody (anti-mPD-1 Ab), CD279(PD-1)Monoclonal Antibody (RMP1-14), eBioscience (Thermo Fisher Scientific), was used as an anti-mouse PD-1 antibody, and intraperitoneally administered at a dose of 0.05 mg/body on the first day of administration (Day 1). Compound 1 was orally administered at a dose of 14 mg/kg/day once a day on Days 1-5 and 8-9.
For detecting expression of immunity-related factors, flow cytometric analysis was performed for immunological monitoring. On Day 10, the tumor was sampled, and tumor infiltrating lymphocytes were then prepared using Tumor Dissociation Kit, mouse (Miltenyi Biotec). Thereafter, the antibody was stained using FoxP3/Transcription Factor Staining Buffer Set (thermo Fisher Scientific), and analysis was then performed using Flow Cytometer FACSVerse (BD Bioscience). […]

[4] = Body weight change ratio in MC38 transplanted model (Example 1); assay type: in vivo, mouse
Experimental: as §7, §6
(§8) The anti-mouse PD-1 antibody (anti-mPD-1 Ab) was prepared by diluting InVivoMab anti-mouse PD-1 (CD279) (Clone: RMP-1-14, Bio X cell Co.) to a predetermined concentration with Otsuka Normal Saline immediately before administration. On the first day of administration (day 1), the diluted product was intraperitoneally administered as the anti-mouse PD-1 antibody at a dose of 0.05 mg/body.

[5] = tested on: mouse bowel cancer cell line MC38; assay: Antitumor effect of Compound 1 and anti-mouse PD-1 antibody in bowel cancer cell transplanted model (Example 1); assay type: in vivo; conditions: for RTV Day 22 (mean ± SD): MC38 transplanted mice; for T/C (%): Day 22
Experimental: as §1, §2, §3, §4, §5
RTV and T/C were calculated from the following equation.
as §6, §8

[6] = Day 10, Compound 1 14 mg/kg/day p.o. Days 1-5 and 8-9, Dunnett test
[7] = Compound 1 10 mg/kg/day p.o. days 1-5, 8-12, 15-19
[8] = Compound 1 14 mg/kg/day p.o. days 1-5, 8-12, 15-19

CCc1cc(C(N)=O)ccc1-n1nc(C(C)C)c2c(-n3cnc(-c4cnn(C)c4)c3)ccnc21 [Compound 1, 3-ethyl-4-{3-isopropyl-4-(4-(1-methyl-1H-pyrazol-4-yl)-1H-imidazol-1-yl)-1H-pyrazolo[3,4-b]pyridin-1-yl}benzamide]
RTV on Day 22 as compared to the control group ([1]; Aspin-Welch's t-test, Example 3): significantly lower RTV
RTV Day 22 (mean ± SE) ([1]; Compound 1 14 mg/kg/day p.o. days 1-5, 8-12, 15-19, MC38 transplanted mice): 8.32 ± 0.51
T/C (%) ([1]; Day 22, Compound 1 14 mg/kg/day p.o. days 1-5, 8-12, 15-19): 49.7%
BWC(%) Day 22 Mean [2]: 6.63%
ratio of CD8 positive cells in leucocytes (CD45 positive cells) as compared to the control group [3, 6]: significantly higher
ratio of regulatory T-cells in T-cells as compared to the control group [3, 6]: significantly lower
immunostimulatory activity ([3]; conclusion from Example 2): shows immunostimulatory activity
BWC(%) Day 22 Mean [4, 7]: 13.5%
BWC(%) Day 22 Mean [4, 8]: 12.8%
RTV on Day 22 as compared to the control group ([5]; Aspin-Welch's t-test, Example 1): significantly lower RTV
RTV Day 22 (mean ± SD) [5, 7]: 7.93 ± 1.29
RTV Day 22 (mean ± SD) [5, 8]: 5.59 ± 0.92
T/C (%) [5, 7]: 41.7%
T/C (%) [5, 8]: 29.4%
